Legend:
[1] = system: adult subjects with schizophrenia; assay: PANSS total score, Clinical Study Three (6-week, olanzapine-referenced); type: in vivo, human; settings: for PANSS Total Score, Trt Effect (difference between bifeprunox and placebo) / Change from Baseline in PANSS Total Score, Median / Change from Baseline in PANSS Total Score, Mean (SD): LOCF, ITT; for PANSS Total Score, Trt Effect (difference between bifeprunox and placebo): ANCOVA
Procedure: There were four treatment arms in this study, approximately 144 subjects per arm. […] After completing the Single-Blind Placebo Lead-in Period of at least three days, bifeprunox-treated subjects were titrated from 0.25 mg up to 20 mg/day or 30 mg/day according to a standardized titration scheme over a seven- or eight-day period, respectively. When the assigned dose was reached, subjects were maintained at that dose for the remainder of the six week treatment period. […] Subjects were hospitalized (if not already inpatients) after eligibility for study entry was verified, starting from the Screening Visit until at least 10 days after Baseline. Subjects could be hospitalized longer than 10 days if considered medically necessary by the Investigator. Rating scale assessments for efficacy and abnormal movement disorders were done weekly except for Week 5. Safety assessments were performed at Screening, during treatment and at the end of the study. Subject satisfaction with study medication was assessed at Week 6. Samples of whole blood were obtained at Weeks 2, 4, and 6 for determination of bifeprunox in plasma.
Test Product, Dose and Mode of Administration: Bifeprunox tablets, total daily dose 20 mg or 30 mg (one 20 mg tablet and one 10 mg tablet) administered orally using a once daily dosing regimen.

[2] = system: adult subjects with schizophrenia; assay: PANSS positive subscale score, Clinical Study One; type: in vivo, human; settings: ITT; for PANSS Positive Subscale Score, Trt Effect (bifeprunox—placebo): ANCOVA
Procedure: There were five treatment groups in this study. […] Study medication was administered once daily. After Baseline measurements were performed, the titration phase was begun. Bifeprunox treated subjects were titrated up to 5 mg, 10 mg or 20 mg according to a standardized titration schedule (Day 1: 0.125 mg, Day 2: 0.25 mg, Day 3: 0.5 mg, Day 4: 1.0 mg, Day 5: 2.0 mg, Day 6: 5.0 mg, Day 7: 10.0 mg, Day 8: 20 mg). When the assigned dose was reached, subjects were maintained at that dose for the remainder of the six-week treatment period.
The change in the Positive and Negative Symptom Scale (PANSS) total score, from baseline to endpoint, was the primary outcome measure. Secondary efficacy measures included: PANSS positive, PANSS negative, PANSS general psychopathology (GPP) score, PANSS-derived Brief Psychiatric Rating Scale (BPRS) score, Clinical Global Impressions-Severity of Illness (CGI-S), CGI-Improvement (CGI-I) scores, and responder rates. Safety and tolerability evaluations included extrapyramidal symptoms (EPS), weight gain, lipid profile, and serum prolactin.

[3] = Bifeprunox 30 mg, Week 6/Endpoint
[4] = Bifeprunox 10 mg, Endpoint LOCF
[5] = Bifeprunox 20 mg, Endpoint LOCF

Q: What does the source list for `O=c1[nH]c2cccc(N3CCN(Cc4cccc(-c5ccccc5)c4)CC3)c2o1` [Bifeprunox, 7-[4-([1,1′-biphenyl]-3-ylmethyl)-1-piperazinyl]-2(3H)-benzoxazolone]?
A: PANSS Total Score, Trt Effect (difference between bifeprunox and placebo) ([1]; Bifeprunox 20 mg, Week 6/Endpoint): −3.5; Change from Baseline in PANSS Total Score, Median ([1]; Bifeprunox 30 mg, Week 1): −6; Change from Baseline in PANSS Total Score, Mean (SD) ([1]; Bifeprunox 30 mg, Week 2): −8.5 (15.6); Change from Baseline in PANSS Total Score, Median ([1]; Bifeprunox 30 mg, Week 2): −9; Change from Baseline in PANSS Total Score, Mean (SD) ([1]; Bifeprunox 30 mg, Week 3): −11.1 (18.0); Change from Baseline in PANSS Total Score, Median ([1]; Bifeprunox 30 mg, Week 3): −11; Change from Baseline in PANSS Total Score, Mean (SD) ([1]; Bifeprunox 30 mg, Week 4): −12.0 (18.6); Change from Baseline in PANSS Total Score, Median ([1]; Bifeprunox 30 mg, Week 4): −13; Change from Baseline in PANSS Total Score, Mean (SD) [1, 3]: −13.1 (20.2); Change from Baseline in PANSS Total Score, Median [1, 3]: −13; PANSS Total Score, Trt Effect (difference between bifeprunox and placebo) [1, 3]: −2.2; efficacy compared to placebo, primary and key secondary efficacy parameters ([1]; bifeprunox 20 mg and 30 mg, Endpoint): did not demonstrate efficacy as compared to the placebo group; Change from Baseline in PANSS Positive Subscale Score, Mean (S.D.) ([2]; Bifeprunox 5 mg, Endpoint LOCF): −3.2 (5.2); Change from Baseline in PANSS Positive Subscale Score, Median ([2]; Bifeprunox 5 mg, Endpoint LOCF): −3; PANSS Positive Subscale Score, Trt Effect (bifeprunox—placebo) ([2]; Bifeprunox 5 mg, Endpoint LOCF): −1.1; Change from Baseline in PANSS Positive Subscale Score, Mean (S.D.) ([2]; Bifeprunox 5 mg, Week 1, LOCF): −1.1 (3.4); Change from Baseline in PANSS Positive Subscale Score, Median ([2]; Bifeprunox 5 mg, Week 1, LOCF): −1; Change from Baseline in PANSS Positive Subscale Score, Mean (S.D.) ([2]; Bifeprunox 5 mg, Week 2, LOCF): −2.1 (4.0); Change from Baseline in PANSS Positive Subscale Score, Median ([2]; Bifeprunox 5 mg, Week 2, LOCF): −2; Change from Baseline in PANSS Positive Subscale Score, Mean (S.D.) ([2]; Bifeprunox 5 mg, Week 3, LOCF): −2.6 (4.7); Change from Baseline in PANSS Positive Subscale Score, Median ([2]; Bifeprunox 5 mg, Week 3, LOCF): −3; Change from Baseline in PANSS Positive Subscale Score, Mean (S.D.) ([2]; Bifeprunox 5 mg, Week 4, LOCF): −3.0 (5.0); Change from Baseline in PANSS Positive Subscale Score, Median ([2]; Bifeprunox 5 mg, Week 4, LOCF): −4; Change from Baseline in PANSS Positive Subscale Score, Mean (S.D.) [2, 4]: −1.4 (6.1); Change from Baseline in PANSS Positive Subscale Score, Median [2, 4]: −1; PANSS Positive Subscale Score, Trt Effect (bifeprunox—placebo) [2, 4]: 0.7; Change from Baseline in PANSS Positive Subscale Score, Mean (S.D.) ([2]; Bifeprunox 10 mg, Week 1, LOCF): −0.6 (3.9); Change from Baseline in PANSS Positive Subscale Score, Median ([2]; Bifeprunox 10 mg, Week 1, LOCF): −1; Change from Baseline in PANSS Positive Subscale Score, Mean (S.D.) ([2]; Bifeprunox 10 mg, Week 2, LOCF): −1.2 (4.7); Change from Baseline in PANSS Positive Subscale Score, Median ([2]; Bifeprunox 10 mg, Week 2, LOCF): −1; Change from Baseline in PANSS Positive Subscale Score, Mean (S.D.) ([2]; Bifeprunox 10 mg, Week 3, LOCF): −1.1 (5.5); Change from Baseline in PANSS Positive Subscale Score, Median ([2]; Bifeprunox 10 mg, Week 3, LOCF): −1; Change from Baseline in PANSS Positive Subscale Score, Mean (S.D.) ([2]; Bifeprunox 10 mg, Week 4, LOCF): −1.1 (5.6); Change from Baseline in PANSS Positive Subscale Score, Median ([2]; Bifeprunox 10 mg, Week 4, LOCF): −1; Change from Baseline in PANSS Positive Subscale Score, Mean (S.D.) [2, 5]: −3.5 (5.1); Change from Baseline in PANSS Positive Subscale Score, Median [2, 5]: −3; PANSS Positive Subscale Score, Trt Effect (bifeprunox—placebo) [2, 5]: −1.5; Change from Baseline in PANSS Positive Subscale Score, Mean (S.D.) ([2]; Bifeprunox 20 mg, Week 1, LOCF): −1.7 (3.5); Change from Baseline in PANSS Positive Subscale Score, Median ([2]; Bifeprunox 20 mg, Week 1, LOCF): −1; Change from Baseline in PANSS Positive Subscale Score, Mean (S.D.) ([2]; Bifeprunox 20 mg, Week 2, LOCF): −2.7 (4.3); Change from Baseline in PANSS Positive Subscale Score, Median ([2]; Bifeprunox 20 mg, Week 2, LOCF): −3; Change from Baseline in PANSS Positive Subscale Score, Mean (S.D.) ([2]; Bifeprunox 20 mg, Week 3, LOCF): −3.3 (4.4); Change from Baseline in PANSS Positive Subscale Score, Median ([2]; Bifeprunox 20 mg, Week 3, LOCF): −3; Change from Baseline in PANSS Positive Subscale Score, Mean (S.D.) ([2]; Bifeprunox 20 mg, Week 4, LOCF): −3.5 (4.8); Change from Baseline in PANSS Positive Subscale Score, Median ([2]; Bifeprunox 20 mg, Week 4, LOCF): −3

— patent US20090068290A1, “BIFEPRUNOX DOSES FOR TREATING SCHIZOPHRENIA” (priority 2006, published 2009)
